Here are results for 6 compounds from patent US4210667A, “Pharmaceutical preparations containing coumarin carboxylic acid derivatives” (Pfizer Inc., priority 1979, dated 1980).

One may read the % Inhibition as the relative decrease from the control value, in per cent. What is called inhibition is the share of the control response that was lost under treatment.

The test system of experiment [1] is sorbitol accumulation in the sciatic nerve of streptozotocinized (i.e., diabetic) rats. In words: Inhibition of sorbitol accumulation in the sciatic nerve of streptozotocinized (diabetic) rats. In kind it is in vivo, rat. The note with it: 25 mg./kg. t.i.d. oral, at 4, 8 and 24 hours after streptozotocin; measured at 27 hours; vs untreated control; Examples 1, 5: average of two tests. From the text: (§1) The ability of the active ingredients of the preparations, the derivatives,to control chronic diabetic complications and enzymatic reduction of aldoses may be determined by a number of standard biological or pharmacological tests. These include (1) measuring the ability to inhibit the enzyme activity or isolated aldose reductase; (2) measuring the ability to reduce or inhibit sorbitol accumulation in the sciatic nerve of acutely streptozotocinized (i.e., diabetic) rats; (3) measuring the ability to reverse already-elevated sorbitol levels in the sciatic nerve and lens of chronic streptozocin-induced diabetic rats; (4) measuring the ability to prevent or inhibit galactitol formation in the lens of acutely galactosemic rats; and (5) measuring the ability to delay cataract formation and reduce the severity of lens opacities in chronic galactosemic rats.
Some of the Examples of derivatives prepared above were also tested for their ability to reduce or inhibit sorbitol accumulation in the sciatic nerve of streptozotocinized (i.e., diabetic) rats essentially by the procedure described in U.S. Pat. No. 3,821,383. In the present study, the amount of sorbitol accumulation in the sciatic nerves was measured 27 hours after induction of diabetes. The compounds were administered orally at the dose level indicated at 4, 8 and 24 hours following the administration of streptozotocin. The results obtained in this manner are presented in terms of percent inhibition (%) afforded by the test compound compared to the control where no compound was administered (i.e., the untreated animal where sorbitol levels normally rise from approximately […] tissue to as high as […] tissue in the 27-hour test period).

Another experiment concerns the target T1, aldose reductase (Bos taurus, UniProt P16116).
T1 construct: partially purified aldose reductase enzyme obtained from calf lens; from tissue; host or cells: calf lens
In words: Aldose reductase inhibitory activity (partially purified enzyme from calf lens). The conditions noted are these: 10^-4 M, relative to untreated controls, Examples 2, 4, 5: average of two tests, read-out: Degree of Inhibition at 10^-4 Molar. In kind it is biochemical.
Excerpt: as §1
The derivatives prepared in Examples 1-7 were tested for their ability to reduce or inhibit aldose reductase enzyme activity, following the procedure described in U.S. Pat. No. 3,821,383 and based on the procedure of Hayman et. al., Journal of Biological Chemistry, 240, 877 (1965). The substrate employed was partially purified aldose reductase enzyme obtained from calf lens. The drugs were tested at a level of 10^-4 M to determine the degree of inhibition of enzyme activity relative to untreated controls.

Consider `Cc1cc2oc(=O)cc(CC(=O)O)c2cc1C` [Example 5, 6,7-dimethylcoumarin-4-acetic acid], for which the “% Inhibition at Dose (sorbitol accumulation in sciatic nerve)” value (“% Inhibition at Dose” below) in experiment [1] was 4%. The inhibition at 100 µM on aldose reductase was found to be 94%.

In the case of `Cc1cc(C)c2c(CC(=O)O)cc(=O)oc2c1` [Example 3, 5,7-dimethylcoumarin-4-acetic acid], in experiment [1], the “% Inhibition at Dose” value worked out at 11%. On aldose reductase, the inhibition at 100 µM was determined as 91%.

In the case of `Cc1ccc2c(CC(=O)O)cc(=O)oc2c1` [Example 4, 7-methylcoumarin-4-acetic acid], the inhibition at 100 µM at aldose reductase came out at 94%.

Consider `Cc1cc2oc(=O)c(C)c(CC(=O)O)c2cc1C` [Example 1, 3,6,7-trimethylcoumarin-4-acetic acid], for which the “% Inhibition at Dose” value in experiment [1] came out at 21%. In addition, at aldose reductase, the inhibition at 100 µM was 81%.

Take `O=C(O)Cc1cc(=O)oc2c1cc(Cl)c1ccccc12` [Example 2, 6-chloro-1:2-alpha-naphthapyrone-4-acetic acid]: the “% Inhibition at Dose” value in experiment [1] amounted to 9%. Moreover, on aldose reductase, the inhibition at 100 µM amounted to 91%.

For `Cc1cc(Cl)cc2c(C(=O)O)cc(=O)oc12` [Example 6, 6-chloro-8-methylcoumarin-4-carboxylic acid], the inhibition at 100 µM on aldose reductase amounted to 65%.
